Molecular target: 5-hydroxytryptamine receptor 6 (Homo sapiens, UniProt P50406)
Experiment: Displacement of [3H]LSD from human 5HT6 receptor expressed in HeLa cells
Type: cell-based

Sequence of 5-hydroxytryptamine receptor 6 (P50406 whole entry): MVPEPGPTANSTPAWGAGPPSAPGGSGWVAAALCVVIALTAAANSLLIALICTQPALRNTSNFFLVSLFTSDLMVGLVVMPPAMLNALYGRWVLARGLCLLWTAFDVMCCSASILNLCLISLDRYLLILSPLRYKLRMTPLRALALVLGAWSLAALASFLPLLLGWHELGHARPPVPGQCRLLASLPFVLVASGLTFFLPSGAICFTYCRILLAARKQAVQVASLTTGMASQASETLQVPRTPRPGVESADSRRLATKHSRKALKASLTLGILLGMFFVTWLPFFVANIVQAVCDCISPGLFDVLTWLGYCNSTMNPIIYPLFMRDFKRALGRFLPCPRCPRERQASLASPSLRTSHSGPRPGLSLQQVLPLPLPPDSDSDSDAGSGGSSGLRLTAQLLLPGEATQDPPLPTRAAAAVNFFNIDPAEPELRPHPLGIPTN

## NCCc1cn(S(=O)(=O)c2ccc(Cl)c(Cl)c2)c2ccccc12
  Ki: 30 nM

Reference: ChEMBL document CHEMBL1138245, “Discovery of N1-(6-chloroimidazo[2,1-b][1,3]thiazole-5-sulfonyl)tryptamine as a potent, selective, and orally active 5-HT(6) receptor agonist” (J Med Chem, 2007)
